Experimental data as given in article PMC6305444, “Advancement of the 5-Amino-1-(Carbamoylmethyl)-1H-1,2,3-Triazole-4-Carboxamide Scaffold to Disarm the Bacterial SOS Response” (Frontiers in Microbiology, 2018).

Columns and labels:
[1] = Solubility (inferred from titration curves in assay buffer; DMSO stocks); format: physicochemical; details: FlAsH-LexA cleavage assay buffer, aqueous buffer; suggested by normal titration curves in FlAsH-LexA assay buffer; read-out: aqueous solubility maintained up to
Source text: Representative titrations for the compounds can be found in the Supplementary Figure 1.

[2] = molecular target: T1, E. coli FlAsH-LexA (RecA-promoted LexA cleavage) (Escherichia coli, UniProt P0A7C2); details: for activity in FlAsH-LexA cleavage assay (in words): highest concentration 111 μM; for rank order of activities, ortho mono-substitution on area A phenyl: FlAsH-LexA cleavage assay
Method: (§6) IC50 values were routinely determined using the E. coli FlAsH-LexA cleavage assay previously used to perform HTS ([Mo et al., 2018]). In this assay RecA-promoted LexA cleavage is monitored using fluorescence polarization. […] Reactions were performed in 384-well plates and components were added as 10 μL additions of ATPγS, ssDNA and RecA, in buffer and 10 μL of E. coli FlAsH-LexA in buffer using a Janus liquid handler (Perkin-Elmer). Compound was added as a DMSO solution using a pin tool, and the final concentration of DMSO in the reaction was 1.2%. Once the reaction components were combined, reactions were centrifuged for 1 min at 500 rpm and incubated for 30 min at room temperature. Reactions were quenched with a 10 μL addition of 50 mM EDTA and plates were read on a Tecan Infinite F200 Pro plate reader (Tecan US, Inc., Morrisville, NC, United States). […] On each plate 32 positive (-RecA) and 32 negative controls (+RecA) in which DMSO without compound was added were used to define the range of mP and calculate the fraction inhibited.
(§7) IC50 values were estimated by non-linear least squares fitting to the data using Equation 1.
(§8) where FI = Fraction inhibited, [I] = Concentration of compound and n = Hill coefficient. Fitting was performed using Igor Pro (WaveMetrics Inc., Lake Oswego, OR, United States).

[3] = molecular target: T1, E. coli FlAsH-LexA (RecA-promoted LexA cleavage); test: biochemical
Method: as §6, §7, §8

[4] = molecular target: T2, full-length E. coli LexA (RecA*-induced cleavage) (Escherichia coli, UniProt P0A7C2); test: Orthogonal 32P-LexA cleavage assay, full-length E. coli LexA; format: biochemical
T2 construct: Full-length E. coli and P. aeruginosa LexA were engineered with a RRXS phosphorylation site on the N-terminus of the full-length protein; made in house
Method: (§1) Full-length E. coli and P. aeruginosa LexA were engineered with a RRXS phosphorylation site on the N-terminus of the full-length protein, allowing for ^32P labeling by protein kinase A to produce ^32P-LexA, as described previously ([Mo et al., 2018]). Reactions contained 100 nM ^32P-LexA, 200 nM RecA and 10 μM ATPγS and the buffer conditions were identical to those in the HTS assay. Compounds were added in DMSO and the final concentration was 2%. Reactions were incubated for 30 min at room temperature after which 2 × Laemmli buffer was added to stop the assay. The stopped reactions were subjected to 15% SDS-PAGE and the gels were visualized via phosphorimaging on a Typhoon imager (GE Healthcare Bio-Sciences, Marlborough, MA, United States). The intact and cleaved bands were quantified using Quantity One (Bio-Rad, Hercules, CA, United States) and the fraction inhibited was calculated. […] Plots of fraction inhibited against compound concentration were fitted to Equation 1.

[5] = molecular target: T3, full length LexA from P. aeruginosa (RecA*-mediated cleavage) (Pseudomonas aeruginosa, UniProt P37452); test: Orthogonal 32P-LexA cleavage assay, full-length P. aeruginosa LexA; format: biochemical
T3 construct: examining RecA^∗-mediated cleavage of full length LexA from P. aeruginosa; made in house
Method: as §1

full length E. coli LexA [6] = molecular target: T4, full length E. coli LexA (Escherichia coli, UniProt P0A7C2); test: Auto-proteolysis of 32P-labelled full length E. coli LexA in the absence of RecA; format: biochemical
T4 construct: a fluorescence-independent assay using a full-length version of E. coli LexA was employed; made in house
Method: (§2) Supplementary Figure 2. Binding of 14 to LexA alone. (a) Inhibition of the auto-proteolysis of 32P-labelleled full length E. coli LexA by 14 in the absence of RecA. All data represent the mean of two independent measurements and the error bars represent the range of error. The error of the IC50 value is the standard deviation of the fit of equation 1 to the data. (b) Thermal shift observed upon binding of 14 to full length E. coli LexA. The concentrations of LexA and 14 were 5 µM and 50 µM, respectively. The errors for the Tm values are the standard deviations of the fits of equation S1 to the data.
(§3) Cy5-labeled operator DNA Bound DNA
(§4) Supplementary Figure 3. LexA DNA binding activity is not impacted by 14. Varying concentrations of […]
(§5) (SOS box). The titrations were performed in the presence of DMSO or 40 μM of 14. The samples were separated on a non-denaturing polyacrylamide gel (at right) and the bound fraction calculated. […]

full length E. coli LexA [7] = molecular target: T4, full length E. coli LexA; test: Thermal shift assay of LexA; format: binding; details: LexA 5 µM, compound 50 µM; LexA alone Tm 57.4 ± 0.4
Method: as §2, §3, §4, §5

[8] = molecular target: T5, LexA-S119A / Cy5-labeled SOS operator DNA (Escherichia coli, UniProt P0A7C2, S119A); test: Electrophoretic mobility shift assay (EMSA), LexA binding to SOS operator DNA; details: compound vs DMSO
T5 construct: made in house
Method: Increasing concentrations (0–1 μM) of LexA-S119A were mixed with 10 nM SOS operator DNA labeled with Cy5 in EMSA running buffer (70 mM Tris-HCl pH 7.5, 10 mM MgCl2, 150 mM NaCl, 5 mM DTT, 0.1 mg/ml BSA, 10 ng/μL ssDNA, 5% glycerol, 0.04% bromophenol blue) in the presence of 50 μM of compound (or DMSO carrier). After incubation at room temperature for 30 min, 20 μL of each reaction was subjected to 6% native PAGE. Gels were visualized on a Typhoon Imager using default fluorescence filter settings for Cy5. Gel bands were quantified using ImageJ (NIH, Bethesda, MD, United States) to determine the fraction of bound DNA at each LexA concentration. Data were fitted to a variable-slope sigmoidal dose-response curve.

[9] = system: recA promoter GFP reporter (SOS response); test: Cell-based SOS reporter assay (GFP under recA promoter, ciprofloxacin-induced); set-up: species or system E. coli MG1655 ΔsulA ΔtolC; details: Escherichia coli, 2 h, read-out: IC50, GFP assay
Method: An E. coli MG1655 strain lacking sulA (ΔsulA) and the tolC transporter (ΔtolC) ([Mo et al., 2016]) was transformed with a reporter plasmid in which gfp expression was under the control of the recA promoter (pMS201 pRecA GFP) ([Zaslaver et al., 2006]). To perform assays overnight, cultures of the reporter strain were diluted 100-fold in M9 minimal media and grown at 37°C with agitation to an OD595 of ∼0.6. For each reaction sample 100 μL of culture were mixed with 100 μL of M9 minimal media containing ciprofloxacin (256 ng/mL). Pre-diluted compounds were added (5 μL) in DMSO and cultures were incubated at 37°C with agitation for 2 h after which the cells were fixed by adding 200 μL of phosphate buffered saline, pH 7.4 containing 1% paraformaldehyde. After 1 h of fixing, the cells were spun down at 4,000 rpm and re-suspended in phosphate buffered saline, pH 7.4. Fixed cells were analyzed using flow cytometry (BD FACSCalibur, Ex/Em: 488 nm/530 nm) and the mean fluorescence of 20,000 cells in each condition was recorded.

ΔtolC E. coli [10] = test: Frequency of resistance (rifampin-resistance mutation rate); format: cell-based
Method: A starter culture of ΔtolC E. coli was cultured overnight at 37°C with shaking in LB broth. The next day the culture was diluted 3 × 10^7-fold in to LB broth. The dilution was used to produce four sets of twelve cultures, each containing 1 mL. To one set was added 10 μL of deionized H2O plus 10 μL of DMSO, to the second set was added 10 μL of 125 ng/mL ciprofloxacin in deionized H2O plus 10 μL of DMSO, to the third set was added 10 μL of deionized H2O plus 10 μL of a 10 mM solution of 14 in DMSO and to the fourth set was added 10 μL of 125 ng/mL ciprofloxacin in deionized H2O plus 10 μL of 14 in DMSO.
The 48 cultures were incubated at 37°C with shaking for 48 h. To determine the population size, spot plating was performed starting with 1 μL of the cultures diluted 10^5-fold. A 100 μL aliquot of each 10^5-fold dilution was transferred to a 96-well plate and serially diluted (10-fold dilutions) into LB broth. The dilutions (5 μL) were spotted on LB agar plates and the plates were incubated overnight at 37°C. To determine the rifampin resistant population, 999 μL of each 1 mL culture was centrifuged at 6000 rpm for 10 min to remove the cells from solution and the cells were suspended in 100 μL of autoclaved 0.15 M NaCl. The 100 μL solutions were plated on the LB plates containing 100 μg/mL rifampin and incubated for 2 days at 37°C. Following counting of the colonies the program bz-rates ([Gillet-Markowska et al., 2015]) was used to estimate mutation rates.

[11] = Cytotoxicity testing with HG2 cells; format: cell-based
ΔtolC E. coli [12] = test: MIC of ciprofloxacin; format: cell-based; details: Escherichia coli

T1 sequence (P0A7G6 2-353): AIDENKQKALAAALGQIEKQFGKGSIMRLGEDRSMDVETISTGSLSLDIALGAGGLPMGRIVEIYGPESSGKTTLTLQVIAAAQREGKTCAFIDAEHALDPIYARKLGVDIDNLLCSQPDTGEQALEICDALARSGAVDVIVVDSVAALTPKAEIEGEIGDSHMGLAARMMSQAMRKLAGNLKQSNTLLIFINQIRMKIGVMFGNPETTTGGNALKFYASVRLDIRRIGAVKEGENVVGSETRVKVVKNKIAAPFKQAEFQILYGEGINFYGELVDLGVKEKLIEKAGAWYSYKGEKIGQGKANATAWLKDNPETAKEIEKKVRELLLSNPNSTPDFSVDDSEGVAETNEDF
T1 sequence (P0A7C2 75-202): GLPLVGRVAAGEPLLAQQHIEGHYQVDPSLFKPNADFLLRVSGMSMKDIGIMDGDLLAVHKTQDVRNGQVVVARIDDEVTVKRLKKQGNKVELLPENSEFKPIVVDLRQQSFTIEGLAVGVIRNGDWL
T3 sequence (P37452 whole entry): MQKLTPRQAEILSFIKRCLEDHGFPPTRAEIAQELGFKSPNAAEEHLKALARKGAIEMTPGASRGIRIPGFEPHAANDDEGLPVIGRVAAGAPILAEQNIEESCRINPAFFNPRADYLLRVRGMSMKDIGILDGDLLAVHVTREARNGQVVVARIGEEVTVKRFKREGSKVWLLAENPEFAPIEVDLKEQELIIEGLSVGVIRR
T4 sequence (P0A7C2 whole entry): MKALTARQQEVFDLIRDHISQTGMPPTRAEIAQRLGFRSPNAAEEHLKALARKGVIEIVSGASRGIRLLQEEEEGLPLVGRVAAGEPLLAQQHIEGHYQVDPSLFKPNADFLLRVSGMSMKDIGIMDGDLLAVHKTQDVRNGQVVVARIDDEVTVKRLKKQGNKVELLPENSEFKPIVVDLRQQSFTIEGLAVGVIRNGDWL
T5 sequence (P0A7C2 whole entry S119A): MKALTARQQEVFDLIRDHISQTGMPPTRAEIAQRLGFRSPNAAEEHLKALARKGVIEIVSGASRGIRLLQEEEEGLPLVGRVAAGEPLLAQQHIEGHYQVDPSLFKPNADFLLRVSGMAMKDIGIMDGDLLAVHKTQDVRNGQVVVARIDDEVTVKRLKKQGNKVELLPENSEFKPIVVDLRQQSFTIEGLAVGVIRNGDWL
T2 sequence (P0A7C2 whole entry): as the sequence (P0A7C2 whole entry) above

Compound | solubility [1] | activity in FlAsH-LexA cleavage assay (in words) [2] | IC50 [3] | also measured
CCOC(=O)c1ccc(NC(=O)c2nnn(CC(=O)Nc3ccc(OCC)cc3)c2N)cc1 [Compound 12] | ≥ 111 µM | tolerated | 19 ± 3 µM | 
Cc1ccc(NC(=O)c2nnn(CC(=O)Nc3ccccc3C)c2N)cc1C [Compound 5] | ≥ 111 µM |  | 17 ± 2 µM | rank order of activities, ortho mono-substitution on area A phenyl [2]: Me (5) > Et (22) > OMe (23) > OEt (24) = H (2)
CCOc1ccc(NC(=O)Cn2nnc(C(=O)Nc3ccccc3)c2N)cc1 [Compound 14, 5-amino-1-{2-[(4-ethoxyphenyl)amino]-2-oxoethyl}-N-phenyl-1H-1,2,3-triazole-4-carboxamide] | ≥ 111 µM |  | 9 ± 1 µM | IC50 [4]: 10 ± 1 µM; IC50 [5]: 5.9 ± 0.4 µM; IC50 (full length E. coli LexA [6]): 15.2 ± 2.5 µM; Tm (full length E. coli LexA [7]): 67.0 ± 0.1 °C; effect on LexA DNA binding (EMSA) [8]: not impacted; IC50 [9]: 32 ± 2 µM; suppression of ciprofloxacin-induced appearance of resistance to rifampicin (ΔtolC E. coli [10]; 100 μM compound): effective in reducing the appearance of resistance to rifampicin; decrease in per generation mutation rate relative to ciprofloxacin alone (ΔtolC E. coli [10]; 100 μM compound + ciprofloxacin 1.25 ng/mL, rifampin resistance, 48 h): approximately threefold; mutation rate, compound alone (ΔtolC E. coli [10]; 100 μM compound, no ciprofloxacin): comparable to DMSO alone controls; CC50 [11]: > 500 µM
CCOc1ccc(NC(=O)Cn2nnc(C(=O)Nc3ccccc3C)c2N)cc1 [Compound 9] |  | not tolerated | > 100 µM | 
Cc1ccc(NC(=O)c2nnn(CC(=O)Nc3ccccc3)c2N)cc1C [Compound 2] |  | loss of activity | > 100 µM | rank order of activities, ortho mono-substitution on area A phenyl [2]: Me (5) > Et (22) > OMe (23) > OEt (24) = H (2)
Cc1cccc(NC(=O)Cn2nnc(C(=O)Nc3ccc(C)c(C)c3)c2N)c1 [Compound 6] |  | not tolerated | > 100 µM | 
Cc1ccc(NC(=O)c2nnn(CC(=O)NC3CCCCC3)c2N)cc1C [Compound 3] | ≥ 111 µM | returned activity | 44 ± 4 µM | 
Cc1ccc(NC(=O)Cn2nnc(C(=O)Nc3ccc(C)c(C)c3)c2N)cc1 [Compound 7] | ≥ 111 µM |  | 18 ± 1 µM | 
Cc1ccc(NC(=O)c2nnn(CC(=O)NC3CCCCCC3)c2N)cc1C [Compound 4] | ≥ 111 µM | returned activity | 22 ± 3 µM | 
O=C(O)c1cn(C2CC2)c2cc(N3CCNCC3)c(F)cc2c1=O [ciprofloxacin, reference compound] |  |  |  | mutation rate, ciprofloxacin alone (ΔtolC E. coli [10]; sub-MIC concentration 1.25 ng/mL): produced an induction of mutagenesis; MIC (ΔtolC E. coli [12]): 5 ng/mL
CCOc1ccc(NC(=O)Cn2nnc(C(=O)Nc3cccc(C)c3)c2N)cc1 [Compound 10] | ≥ 111 µM | allowed | 33 ± 4 µM | 
Cc1ccc(NC(=O)Cn2nnc(C(=O)Nc3ccc(C)c(C)c3)c2N)c(C)c1 [Compound 8] | ≥ 111 µM | tolerated but not significantly superior to ortho-substitution alone | 15 ± 2 µM | 
CCOc1ccc(NC(=O)Cn2nnc(C(=O)Nc3cccnc3)c2N)cc1 [Compound 13] | ≥ 111 µM | tolerated | 40 ± 3 µM | 
CCOc1ccc(NC(=O)Cn2nnc(C(=O)Nc3ccc(C)c(C)c3)c2N)cc1 [Compound 1] | ≥ 111 µM |  | 32 ± 6 µM | IC50 [5]: 130 ± 28 µM; CC50 [11]: 277 µM
CCOc1ccc(NC(=O)Cn2nnc(C(=O)Nc3ccc(C)cc3)c2N)cc1 [Compound 11] | ≥ 111 µM | allowed | 15 ± 2 µM | 
